The values below come from patent publication US11111233B2, “Amino pyrimidine compound for inhibiting protein tyrosine kinase activity” (Shenzhen TargetRx, Inc., priority 2016, dated 2021).

Experiment [1] relates to Skin cancer cell line A431 (WT). Description: Cytotoxicity test (MTS cell viability), A431. Format: cell-based. Particulars: Homo sapiens.
In the next experiment the target is EGFR [L858R/T790M] (Homo sapiens (Human), UniProt P00533, L858R/T790M). Description: Kinase inhibition assay (HTRF), EGFR [L858R/T790M]. Format: biochemical. A general note: TR-FRET usually uses a lanthanide donor and a delayed reading to cut background.
Sequence of EGFR [L858R/T790M] (P00533 25-1210 T790M/L858R): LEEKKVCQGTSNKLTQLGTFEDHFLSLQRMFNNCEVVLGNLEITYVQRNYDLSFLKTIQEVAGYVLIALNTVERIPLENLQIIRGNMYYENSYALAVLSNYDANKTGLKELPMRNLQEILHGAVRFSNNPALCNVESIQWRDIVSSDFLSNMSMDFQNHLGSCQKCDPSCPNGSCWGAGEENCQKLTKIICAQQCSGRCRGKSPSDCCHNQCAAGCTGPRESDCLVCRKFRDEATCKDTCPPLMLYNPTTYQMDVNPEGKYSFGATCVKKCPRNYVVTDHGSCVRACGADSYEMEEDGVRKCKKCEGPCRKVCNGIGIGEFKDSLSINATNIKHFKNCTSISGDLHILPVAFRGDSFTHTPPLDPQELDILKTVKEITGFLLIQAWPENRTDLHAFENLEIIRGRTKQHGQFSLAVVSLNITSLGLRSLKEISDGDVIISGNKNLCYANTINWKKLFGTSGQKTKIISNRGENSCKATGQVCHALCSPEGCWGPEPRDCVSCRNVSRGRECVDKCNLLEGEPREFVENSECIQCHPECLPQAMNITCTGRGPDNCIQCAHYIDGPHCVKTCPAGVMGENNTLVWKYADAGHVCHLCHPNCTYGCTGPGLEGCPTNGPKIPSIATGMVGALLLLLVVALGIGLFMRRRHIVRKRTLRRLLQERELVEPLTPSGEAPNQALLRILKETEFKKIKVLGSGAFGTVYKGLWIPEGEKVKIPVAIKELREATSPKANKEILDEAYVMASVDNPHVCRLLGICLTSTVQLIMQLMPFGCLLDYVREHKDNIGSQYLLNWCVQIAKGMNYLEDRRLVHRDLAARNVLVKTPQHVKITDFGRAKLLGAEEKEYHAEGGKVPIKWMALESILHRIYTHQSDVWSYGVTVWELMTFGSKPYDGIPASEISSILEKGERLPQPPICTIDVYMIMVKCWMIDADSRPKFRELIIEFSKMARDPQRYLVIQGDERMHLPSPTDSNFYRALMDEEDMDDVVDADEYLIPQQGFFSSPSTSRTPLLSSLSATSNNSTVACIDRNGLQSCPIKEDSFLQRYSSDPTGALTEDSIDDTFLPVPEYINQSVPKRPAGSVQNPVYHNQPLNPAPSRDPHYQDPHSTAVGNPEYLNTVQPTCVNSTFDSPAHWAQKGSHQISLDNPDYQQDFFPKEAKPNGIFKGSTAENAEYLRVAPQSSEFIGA
The subject of experiment [2] is lung cancer cells HCC827 (Del19). The experiment in a line: Cytotoxicity test (MTS cell viability), HCC827. Particulars: Homo sapiens. Format: cell-based.
For the next experiment, the target named is WT EGFR (Homo sapiens (Human), UniProt P00533). The experiment in a line: Kinase inhibition assay (HTRF), WT EGFR. Format: biochemical.
Sequence of WT EGFR (P00533 25-1210): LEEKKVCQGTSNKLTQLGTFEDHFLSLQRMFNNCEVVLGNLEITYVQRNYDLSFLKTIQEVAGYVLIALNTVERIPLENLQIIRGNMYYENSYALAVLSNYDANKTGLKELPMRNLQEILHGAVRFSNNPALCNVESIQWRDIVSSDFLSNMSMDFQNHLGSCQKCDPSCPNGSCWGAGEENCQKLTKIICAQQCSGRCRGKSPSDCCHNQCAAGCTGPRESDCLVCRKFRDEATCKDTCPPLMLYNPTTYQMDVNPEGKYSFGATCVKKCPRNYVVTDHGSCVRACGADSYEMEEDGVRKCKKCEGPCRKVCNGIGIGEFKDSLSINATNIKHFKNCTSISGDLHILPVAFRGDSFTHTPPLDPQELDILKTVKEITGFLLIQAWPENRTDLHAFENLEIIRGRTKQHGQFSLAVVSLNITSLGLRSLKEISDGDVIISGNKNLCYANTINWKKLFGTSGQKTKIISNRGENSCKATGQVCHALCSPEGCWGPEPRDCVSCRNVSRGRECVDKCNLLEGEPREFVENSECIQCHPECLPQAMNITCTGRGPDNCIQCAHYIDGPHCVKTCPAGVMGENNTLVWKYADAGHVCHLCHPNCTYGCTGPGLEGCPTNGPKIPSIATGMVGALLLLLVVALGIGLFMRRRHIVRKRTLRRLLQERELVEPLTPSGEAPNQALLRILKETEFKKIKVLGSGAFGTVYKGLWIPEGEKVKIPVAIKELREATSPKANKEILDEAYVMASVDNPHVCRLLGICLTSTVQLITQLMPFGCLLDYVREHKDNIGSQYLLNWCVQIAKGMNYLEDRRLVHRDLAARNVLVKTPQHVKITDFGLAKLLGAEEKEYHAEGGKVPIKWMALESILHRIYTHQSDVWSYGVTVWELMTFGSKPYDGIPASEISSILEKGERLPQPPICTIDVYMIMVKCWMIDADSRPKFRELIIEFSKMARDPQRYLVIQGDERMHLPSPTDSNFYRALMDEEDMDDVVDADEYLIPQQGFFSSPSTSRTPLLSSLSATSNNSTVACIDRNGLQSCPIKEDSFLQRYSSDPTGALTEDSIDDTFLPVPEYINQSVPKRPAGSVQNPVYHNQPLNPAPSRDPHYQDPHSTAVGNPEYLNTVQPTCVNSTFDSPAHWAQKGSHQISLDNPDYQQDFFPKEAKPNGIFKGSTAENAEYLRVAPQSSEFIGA
Setting [3] is: A-431, MTS, 72 hours, read-out: A431 (WT) IC50.
Setting [4] is: HCC827, 72 h, read-out: HCC827 (Del19) IC50(nM).
Setting [5] is: HTRF Kinase TK kit, 10 min pre-incubation, 20 min reaction, read-out: EGFR(L858R/T790M) IC50.
Setting [6] is: HTRF Kinase TK kit, 10 min pre-incubation, 20 min reaction.
Where [7] appears, read: HCC827, MTS, 72 hours, read-out: HCC827 (Del19) IC50.

Like-named read-outs stand apart in the source and are kept apart here.

On to `C=CC(=O)Nc1cc(Nc2nccc(-c3cc(F)c4nc(C)n(C(C)C)c4c3)n2)c(OC)cc1OCCOC` [Example 10, N-(2-(2-methoxy-ethyl-oxy)-5-((4-(4-fluoro-1-isopropyl-2-methyl-1H-benzo[d]imidazole-6-yl)pyrimidin-2-yl)amino)-4-methoxyphenyl)acrylamide], for which the IC50 in experiment [1] (setting [3]) is greater than 1000 nM; on EGFR [L858R/T790M] it was 50 to 100 nM; in experiment [2] (setting [4]), 400 to 1000 nM; on WT EGFR it was greater than 100 nM.

For the molecule `C=CC(=O)Nc1cc(Nc2nccc(-c3cc(F)c4nc(C)n(C(C)C)c4c3)n2)c(OC)cc1N1CCC(N2CCOCC2)CC1` [Example 13], the IC50 in experiment [1] (setting [3]) was greater than 1000 nM; at EGFR [L858R/T790M] (setting [5]) it was 1 to 50 nM; in experiment [2] (setting [4]), 10 to 100 nM; on WT EGFR (setting [6]), 1 to 50 nM.

Take `C=CC(=O)Nc1cc(Nc2nccc(-c3cc(F)c4nc(C)n(C(C)C)c4c3)n2)c(OC)cc1N1CCC(O)CC1` [Example 17, N-(2-(4-hydroxypiperidine-1-yl)-5-((4-(4-fluoro-1-isopropyl-2-methyl-1H-benzo[d]imidazole-6-yl)pyrimidin-2-yl)amino)-4-methoxyphenyl)acrylamide]: the IC50 in experiment [1] (setting [3]) was greater than 1000 nM; on EGFR [L858R/T790M] (setting [5]) it was 1 to 50 nM; in experiment [2] (setting [4]) it was 100 to 400 nM; against WT EGFR (setting [6]), greater than 100 nM.

For `C=CC(=O)Nc1cc(Nc2nccc(-c3cc(F)c4nc(C)n(C5CC5)c4c3)n2)c(OC)cc1N(C)CCN(C)C` [Example 20, N-(5-((4-(1-cyclopropyl-4-fluoro-2-methyl-1H-benzo[d]imidazole-6-yl)pyrimidin-2-yl)amino)-2-((2-(dimethylamino)ethyl)(methyl)amino)-4-methoxyphenyl)acrylamide], the IC50 in experiment [1] (setting [3]) is 100 to 400 nM; at EGFR [L858R/T790M] (setting [5]) it was less than 1 nM; in experiment [2] (setting [7]), 10 to 100 nM; at WT EGFR (setting [6]), 1 to 50 nM.

Consider `C=CC(=O)Nc1cc(Nc2nccc(-c3cc(F)c4nc(CF)n(C(C)C)c4c3)n2)c(OC)cc1N(C)CCN(C)C` [Example 21, N-(2-((2-(dimethylamino)ethyl)(methyl)amino)-5-((4-(4-fluoro-2-(fluoromethyl)-1-isopropyl-1H-benzo[d]imidazole-6-yl)pyrimidin-2-yl)amino)-4-methoxyphenyl)acrylamide], for which the IC50 was 100 to 400 nM in experiment [1] (setting [3]), less than 1 nM at EGFR [L858R/T790M] (setting [5]), less than 10 nM in experiment [2] (setting [7]) and 1 to 50 nM against WT EGFR (setting [6]).

Regarding `C=CC(=O)Nc1cc(Nc2nccc(-c3cnc4nc(C)n(C(C)C)c4c3)n2)c(OC)cc1N(C)CCN(C)C` [Example 22, N-(2-((2-(dimethylamino)ethyl)(methyl)amino)-5-((4-(1-isopropyl-2-methyl-1H-imidazo[4,5-b]pyridine-6-yl)pyrimidin-2-yl)amino)-4-methoxyphenyl)acrylamide], the IC50 in experiment [1] (A-431, 72 h, read-out: A431 (WT) IC50(nM)) was in the range of 100 to 400 nM; at EGFR [L858R/T790M] (setting [5]), 1 to 50 nM; in experiment [2] (setting [4]), 10 to 100 nM; against WT EGFR (setting [6]), 1 to 50 nM.

As to `C=CC(=O)Nc1cc(Nc2nccc(-c3ccc4nc(OC)n(C(C)C)c4c3)n2)c(OC)cc1N(C)CCN(C)C` [Example 24, N-(2-((2-(dimethylamino)ethyl)(methyl)amino)-5-((4-(1-isopropyl-2-methoxy-1H-benzo[d]imidazole-6-yl)pyrimidin-2-yl)amino)-4-methoxyphenyl)acrylamide], the IC50 is 400 to 1000 nM in experiment [1] (setting [3]), 1 to 50 nM at EGFR [L858R/T790M] (setting [5]), 10 to 100 nM in experiment [2] (setting [7]) and 1 to 50 nM on WT EGFR (setting [6]).

As to `C=CC(=O)Nc1cc(Nc2nccc(-c3ccc4oc(=O)n(C)c4c3)n2)c(OC)cc1N(C)CCN(C)C` [Example 25, N-(2-((2-(dimethylamino)ethyl)(methyl)amino)-4-methoxy-5-((4-(3-methyl-2-oxo-2,3-di hydrobenzo[d]oxazole-5-yl)pyrimidin-2-yl)amino)phenyl)acrylamide], the IC50 is greater than 1000 nM in experiment [1] (setting [3]), 1 to 50 nM on EGFR [L858R/T790M] (setting [5]), 100 to 400 nM in experiment [2] (setting [7]) and 1 to 50 nM against WT EGFR (setting [6]).

In the case of `C=CC(=O)Nc1cc(Nc2nccc(-c3cc(F)c4cnn(C(C)C)c4c3)n2)c(OC)cc1N(C)CCN(C)C` [Example 26, N-(2-((2-(dimethylamino)ethyl)(methyl)amino)-5-((4-(4-fluoro-1-isopropyl-1H-indazole-6-yl)pyrimidin-2-yl)amino)-4-methoxyphenyl)acrylamide], the IC50 in experiment [1] (setting [3]) was 400 to 1000 nM; at EGFR [L858R/T790M] (setting [5]), less than 1 nM; in experiment [2] (setting [7]), 10 to 100 nM; on WT EGFR (setting [6]) it was 1 to 50 nM.

As for `C=CC(=O)Nc1cc(Nc2nccc(-c3ccc4cnn(C(C)C)c4c3)n2)c(OC)cc1N(C)CCN(C)C` [Example 27, N-(2-((2-(dimethylamino)ethyl)(methyl)amino)-5-((4-(1-isopropyl-1H-indazole-6-yl)pyrimidin-2-yl)amino)-4-methoxyphenyl)acrylamide], the IC50 is 400 to 1000 nM in experiment [1] (setting [3]), less than 1 nM on EGFR [L858R/T790M] (setting [5]), 10 to 100 nM in experiment [2] (setting [7]) and 1 to 50 nM on WT EGFR (setting [6]).

Regarding `C=CC(=O)Nc1cc(Nc2nccc(-c3cc(F)c4nc(C)c(C(C)C)n4c3)n2)c(OC)cc1N(C)CCN(C)C` [Example 28, N-(2-((2-(dimethylamino)ethyl)(methyl)amino)-5-((4-(8-fluoro-3-isopropyl-2-methylimidazo[1,2-a]pyridine-6-yl)pyrimidin-2-yl)amino)-4-methoxyphenyl)acrylamide], the IC50 is 400 to 1000 nM in experiment [1] (setting [3]), 1 to 50 nM on EGFR [L858R/T790M] (setting [5]), 10 to 100 nM in experiment [2] (setting [7]) and 1 to 50 nM at WT EGFR (setting [6]).

For the molecule `C=CC(=O)Nc1cc(Nc2nccc(-c3cc(F)c4nc(C)cn4c3)n2)c(OC)cc1N(C)CCN(C)C` [Example 29, N-(2-((2-(dimethylamino)ethyl)(methyl)amino)-5-((4-(8-fluoro-2-methylimidazo[1,2-a]pyridine-6-yl)pyrimidin-2-yl)amino)-4-methoxyphenyl)acrylamide], the IC50 lay in the range of 400 to 1000 nM in experiment [1] (setting [3]), 1 to 50 nM at EGFR [L858R/T790M] (setting [5]), 100 to 400 nM in experiment [2] (setting [7]) and 1 to 50 nM against WT EGFR (setting [6]).

Consider `C=CC(=O)Nc1cc(Nc2nccc(-c3cc(OC(C)(C)C)c4nc(C)n(C(C)C)c4c3)n2)c(OC)cc1N(C)CCN(C)C` [Example 30, N-(5-((4-(4-(tert-butoxy)-1-isopropyl-2-methyl-1H-benzo[d]imidazole-6-yl)pyrimidin-2-yl)amino)-2-((2-(dimethylamino)ethyl)(methyl)amino)-4-methoxyphenyl)acrylamide], for which the IC50 was greater than 1000 nM in experiment [1] (setting [3]), less than 1 nM at EGFR [L858R/T790M] (setting [5]), less than 10 nM in experiment [2] (setting [7]) and less than 1 nM against WT EGFR (setting [6]).

Regarding `C=CC(=O)Nc1cc(Nc2nccc(-c3cc(F)c4nc(C)oc4c3)n2)c(OC)cc1N(C)CCN(C)C` [Example 32, N-(2-((2-(dimethylamino)ethyl)(methyl)amino)-5-((4-(4-fluoro-2-methylbenzo[d]oxazole-6-yl)pyrimidin-2-yl)amino)-4-methoxyphenyl)acrylamide], the IC50 is greater than 1000 nM in experiment [1] (setting [3]), 1 to 50 nM on EGFR [L858R/T790M] (setting [5]), 10 to 100 nM in experiment [2] (setting [7]) and 1 to 50 nM against WT EGFR (setting [6]).

Regarding `C=CC(=O)Nc1cc(Nc2nccc(-c3cc(F)c4ocnc4c3)n2)c(OC)cc1N(C)CCN(C)C` [Example 33, N-(2-((2-(dimethylamino)ethyl)(methyl)amino)-5-((4-(7-fluorobenzo[d]oxazole-5-yl)pyrimidin-2-yl)amino)-4-methoxyphenyl)acrylamide], the IC50 in experiment [1] (setting [3]) is greater than 1000 nM; on EGFR [L858R/T790M] (setting [5]) it was less than 1 nM; in experiment [2] (setting [7]) it was 10 to 100 nM; against WT EGFR (setting [6]), 1 to 50 nM.

For `C=CC(=O)Nc1cc(Nc2ncc(F)c(-c3cc(F)c4nc(C)c(C(C)C)n4c3)n2)c(OC)cc1N(C)CCN(C)C` [Example 34, N-(2-((2-(dimethylamino)ethyl)(methyl)amino)-5-((5-fluoro-4-(8-fluoro-3-isopropyl-2-methylimidazo[1,2-a]pyridine-6-yl)pyrimidin-2-yl)amino)-4-methoxyphenyl)acrylamide], the IC50 in experiment [1] (setting [3]) is greater than 1000 nM; on EGFR [L858R/T790M] (setting [5]), less than 1 nM; in experiment [2] (setting [7]), 10 to 100 nM; at WT EGFR (setting [6]), 1 to 50 nM.

For `C=CC(=O)Nc1cc(Nc2nccc(-c3ccc4nc(C)n(C(C)C)c4c3)n2)c(OC)cc1N(C)CCN(C)C` [Example 35, N-(2-((2-(dimethylamino)ethyl)(methyl)amino)-5-((4-(1-isopropyl-2-methyl-1H-benzo[d]imidazole-6-yl)pyrimidin-2-yl)amino)-4-methoxyphenyl)acrylamide], the IC50 in experiment [1] (setting [3]) is 400 to 1000 nM; at EGFR [L858R/T790M] (setting [5]), less than 1 nM; in experiment [2] (setting [7]), 10 to 100 nM; on WT EGFR (setting [6]) it was 1 to 50 nM.

In the case of `C=CC(=O)Nc1cc(Nc2nccc(-c3cc(F)c4[nH]ncc4c3)n2)c(OC)cc1N(C)CCN(C)C` [Example 38, N-(2-((2-(dimethylamino)ethyl)(methyl)amino)-5-((4-(7-fluoro-1H-indazole-5-yl)pyrimidin-2-yl)amino)-4-methoxyphenyl)acrylamide], the IC50 was greater than 1000 nM in experiment [1] (setting [3]), less than 1 nM on EGFR [L858R/T790M] (setting [5]), 10 to 100 nM in experiment [2] (setting [7]) and 1 to 50 nM against WT EGFR (setting [6]).

In the case of `C=CC(=O)Nc1cc(Nc2nccc(-c3cc(F)c4nn(C)cc4c3)n2)c(OC)cc1N(C)CCN(C)C` [Example 40, N-(2-((2-(dimethylamino)ethyl)(methyl)amino)-5-((4-(7-fluoro-2-methyl-2H-indazole-5-yl)pyrimidin-2-yl)amino)-4-methoxyphenyl)acrylamide], the IC50 in experiment [1] (setting [3]) was 400 to 1000 nM; on EGFR [L858R/T790M] (setting [5]) it was less than 1 nM; in experiment [2] (setting [7]) it was 10 to 100 nM; against WT EGFR (setting [6]), 1 to 50 nM.
